{"source": "patent US11401257B2", "about": "“Solid forms of 2-(4-chlorophenyl)-N-((2-(2,6-dioxopiperidin-3-yl)-1-oxoisoindolin-5-yl)methyl)-2,2-difluoroacetamide, and their pharmaceutical compositions and uses” (Celgene Corporation, priority 2016, dated 2022)", "assay_type_in_all_cases": "physicochemical", "key": {"physchem [1]": {"assay": "physchem", "conditions": "water, thermodynamic from solid, Approximate Solubility", "method": "In order to select the screening solvents and to determine the concentration range to be used in the screen, a quantitative solubility assessment was performed on Form B and Form C of Compound 1."}, "[2]": {"assay": "Hygroscopicity by dynamic vapor sorption (DVS)", "conditions": "for water uptake (DVS): relative humidity increased from about 0% to about 90% RH; for DVS water uptake: up to 90% RH", "method": "Hygroscopicity was determined on a Surface Measurement Systems DVS. Typically a sample size of 5-20 mg was loaded into the DVS instrument sample pan and the sample was analyzed on a DVS automated sorption analyzer at room temperature. The relative humidity was increased from 0% to 90% RH at 10% RH step, then decreased in a similar manner to accomplish a full adsorption/desorption cycle."}, "physchem [3]": {"assay": "physchem", "conditions": "for solubility at 24 h: thermodynamic from solid", "method": "Solubility of Form C in selected aqueous and organic solvents was determined by mixing solid with solvents at room temperature. […]"}, "[4]": {"assay": "Form conversion experiments (interconversion among solid forms)", "conditions": "anhydrates of Compound 1", "method": "Further form conversion experiments were performed to determine interconversion among solid forms."}}}
{"smiles": "O=C1CCC(N2Cc3cc(CNC(=O)C(F)(F)c4ccc(Cl)cc4)ccc3C2=O)C(=O)N1", "note": "(centres unmarked) [Form B, 2-(4-chlorophenyl)-N-((2-(2,6-dioxopiperidin-3-yl)-1-oxoisoindolin-5-yl)methyl)-2,2-difluoroacetamide]", "values": [{"measurement": "solubility", "setting": "physchem [1]", "value": "< 1000", "unit": "µg/mL"}, {"measurement": "water uptake (DVS)", "setting": "[2]", "value": "about 1.4 % w/w"}, {"measurement": "DVS water uptake", "setting": "[2]", "value": "~1.4", "unit": "wt % water"}]}
{"smiles": "O=C1CCC(N2Cc3cc(CNC(=O)C(F)(F)c4ccc(Cl)cc4)ccc3C2=O)C(=O)N1", "note": "(centres unmarked) [Form C, 2-(4-chlorophenyl)-N-((2-(2,6-dioxopiperidin-3-yl)-1-oxoisoindolin-5-yl)methyl)-2,2-difluoroacetamide]", "values": [{"measurement": "solubility", "setting": "physchem [3]; 2 h", "value": 843, "unit": "µg/mL"}, {"measurement": "solubility at 24 h", "setting": "physchem [3]; pH 4, aqueous buffer", "value": 1, "unit": "µg/mL"}, {"measurement": "solubility at 24 h", "setting": "physchem [3]; pH 6.8, aqueous buffer", "value": 1, "unit": "µg/mL"}, {"measurement": "water uptake (DVS)", "setting": "[2]", "value": "about 0.6 % w/w"}, {"measurement": "DVS water uptake", "setting": "[2]", "value": "~0.6", "unit": "wt % water"}, {"measurement": "thermodynamic stability among the crystal forms", "setting": "[4]", "value": "most thermodynamically stable anhydrate"}]}
{"smiles": "O=C1CCC(N2Cc3cc(CNC(=O)C(F)(F)c4ccc(Cl)cc4)ccc3C2=O)C(=O)N1", "note": "(centres unmarked) [Form A, 2-(4-chlorophenyl)-N-((2-(2,6-dioxopiperidin-3-yl)-1-oxoisoindolin-5-yl)methyl)-2,2-difluoroacetamide]", "values": [{"measurement": "water uptake (DVS)", "setting": "[2]", "value": "about 1.2 % w/w"}, {"measurement": "DVS water uptake", "setting": "[2]", "value": "~1.2", "unit": "wt % water"}]}
